# Measured values from patent US20200323962A1, “LIPOPHILIC PEPTIDE PRODRUGS” (YISSUM RESEARCH DEVELOPMENT COMPANY OF THE HEBREW …, priority 2017, published 2020).
# Where two headings read alike, the source gives them in different places. Marks after values point to notes of the source that are not given here. Where a SMILES comes first, the peptide text is derived from it. [ ]: non-standard residue; d: D form. Arg(ω,ω'-(C6H13OCO)2) = CCCCCCOC(=O)N=C(NCCC[C@H](N)C(=O)O)NC(=O)OCCCCCC
# Assays:
# [1] = for Mass retention / Permeability, Mean / Permeability, replicate 1 / Permeability, replicate 2 / Permeability, replicate 3: PAMPA, pH 7.4
# Description: The Parallel Artificial Membrane Permeability Assay (PAMPA) is used as an in vitro model of passive, transcellular permeation. […] This assay also allows evaluation of permeability over a large pH range, which is valuable for a preliminary understanding of how orally delivered compounds might be absorbed across the entire gastrointestinal tract. […] Depending upon the types of lipids used and other experimental conditions, PAMPA may be designed to model absorption in gastrointestinal tract (PAMPA-GIT), blood-brain barrier penetration (PAMPA-BBB) or skin penetration (Skin PAMPA). All steps of the PAMPA were carried out according to pION Inc. PAMPA Explorer™ Manual. The main principle of the assay is the incubation of compound in donor chamber (a well in Donor Plate) with aqueous buffer, which is separated from acceptor chamber (a well in Acceptor Plate) with another buffer by a phospholipid or hydrocarbon membrane fixed on a filter support. After the test, concentrations in the corresponding donor and acceptor wells are measured and permeability is calculated. GIT model was simulated using GIT-0 phospholipid mix. […] All compounds were tested in triplicates. Prisma HT buffer (pH 7.4) containing 50 μM test compounds and 0.5% DMSO were added into the Donor Plate wells. Acceptor Sink buffer was added into each well of the acceptor plate. Incubation was done at room temperature for 4 hours without stirring. […] Compounds with low UV-Vis signal were detected by LC-MS/MS method. Then the apparent permeability coefficient was calculated.
# [2] = for Papp A→B: Caco-2, Papp (AB); for Papp B→A: Caco-2, Papp (BA)
# [3] = pH 7.4, LogD
# Protocol: Log D. Determination of distribution coefficients were performed as follows:
# Incubations were carried out in Eppendorf-type polypropylene microtubes in triplicates. […] Phase separation was assured by centrifugation for 2 min at 6000 rpm. The octanol phase was diluted 100-fold with 40% acetonitrile, and aqueous phase was analyzed without dilution. The samples (both phases) were analyzed using HPLC system coupled with tandem mass spectrometer.
# in vitro = conditions: human; for efflux ratio at 90 min, 10 µM: Caco-2, pH 7.4, Net efflux (quotient of Papp (BA) to Papp (AB)); for Papp A→B at 90 min, 10 μM: Caco-2, pH 7.4, Papp (AB); for Papp B→A at 90 min, 10 μM: Caco-2, pH 7.4, Papp (BA)
# [4] = pH 7.4 (mean in parentheses below reported bound)
Compound,PAMPA permeability [1],Mass retention [1] [%],"Permeability, Mean [1]","Permeability, replicate 1 [1]","Permeability, replicate 2 [1]","Permeability, replicate 3 [1]",Papp A→B ([2]; Mean) [×10⁻⁶ cm/s],Papp A→B ([2]; replicate 1) [×10⁻⁶ cm/s],Papp A→B ([2]; replicate 2) [×10⁻⁶ cm/s],Papp B→A ([2]; Mean) [×10⁻⁶ cm/s],Papp B→A ([2]; replicate 1) [×10⁻⁶ cm/s],Papp B→A ([2]; replicate 2) [×10⁻⁶ cm/s],Papp B→A ([2]; replicate 3) [×10⁻⁶ cm/s],logD ([3]; pH 7.4 (mean / reported value)),"efflux ratio at 90 min, 10 µM (in vitro)",further results
CCCCCCOC(=O)N=C(N)NCCC[C@@H]1NC(=O)[C@@H](C(C)C)N(C)C(=O)[C@H](C)N(C)C(=O)[C@H](C)NC(=O)[C@H](CC(=O)OC)NC(=O)CNC1=O [#29P-Hoc],low permeability,10,<−7 Log10[10^−6 cm/s],<−7 Log10[10^−6 cm/s],<−7 Log10[10^−6 cm/s],<−7 Log10[10^−6 cm/s],,,,,,,,,,
"CCCCCCOC(=O)N=C(NCCC[C@@H]1NC(=O)[C@H](Cc2ccccc2)NC(=O)[C@@H]2CCCN2C(=O)[C@@H]2CCCN2C(=O)[C@H](CC(C)C)NC(=O)[C@H](C)NC(=O)[C@H](CC(C)C)NC(=O)[C@H](CC(=O)OC)NC(=O)CNC1=O)NC(=O)OCCCCCC [AR372] (cyclo(ALPPF[Arg(ω,ω'-(C6H13OCO)2)]GD(OMe)L))",>−5 to >−6,80,−5.9 Log10[10^−6 cm/s],−6.2 Log10[10^−6 cm/s],−5.7 Log10[10^−6 cm/s],−5.7 Log10[10^−6 cm/s],< 0.01,< 0.01,< 0.01,0.4,0.5,0.5,0.3,> 4.5,,"Papp A→B ([2]; replicate 3): < 0.01 ×10⁻⁶ cm/s; logD [3, 4]: 4.85; logD ([3]; pH 7.4 (single replicate)): 4.8"
"CCCCCCOC(=O)N=C(NCCC[C@@H]1NC(=O)[C@H](C(C)C)N(C)C(=O)[C@@H](Cc2ccccc2)NC(=O)[C@H](CC(=O)OC)NC(=O)CNC1=O)NC(=O)OCCCCCC [Cil.-P, c(f*VR(Hoc)2 GD)]",does not enhance the permeability,36,−6.5 Log10[10^−6 cm/s],−8.1 Log10[10^−6 cm/s],−6.6 Log10[10^−6 cm/s],−6.5 Log10[10^−6 cm/s],,,,,,,,,,
CC(C)C[C@@H]1NC(=O)CNC(=O)[C@@H]2CCCN2C(=O)[C@@H]2CCCN2C(=O)[C@H](CC(C)C)NC(=O)[C@H](CC(=O)O)NC(=O)CNC(=O)[C@H](CCCNC(=N)N)NC1=O [FRX068] (cyclo(RGDLPPGL)),,2,<−7 Log10[10^−6 cm/s],<−7 Log10[10^−6 cm/s],<−7 Log10[10^−6 cm/s],<−7 Log10[10^−6 cm/s],0.3,0.3,0.2,0.3,0.3,0.3,0.3,< -1,1.1,"Papp A→B ([2]; replicate 3): 0.2 ×10⁻⁶ cm/s; logD [3, 4]: -1.49"
CC(C)C[C@@H]1NC(=O)[C@H](CC(=O)O)NC(=O)CNC(=O)[C@H](CCCNC(=N)N)NC(=O)[C@H](Cc2ccccc2)NC(=O)[C@@H]2CCCN2C(=O)[C@@H]2CCCN2C(=O)[C@H](CC(C)C)NC(=O)[C@H](C)NC1=O [OM1186] (cyclo(RGDLALPPF)),,13,<−7 Log10[10^−6 cm/s],<−7 Log10[10^−6 cm/s],<−7 Log10[10^−6 cm/s],<−7 Log10[10^−6 cm/s],< 0.3,< 0.6,< 0.3,0.2,0.1,0.2,0.3,-0.19,0.6,
CC(C)NCC(O)COc1cccc2ccccc12 (stereo not drawn) [Propranolol],,,,,,,,,,,,,,,0.8,"Papp A→B at 90 min, 10 μM (in vitro; Mean): 18.1 ×10⁻⁶ cm/s; Papp A→B at 90 min, 10 μM (in vitro; replicate 1): 14.9 ×10⁻⁶ cm/s; Papp A→B at 90 min, 10 μM (in vitro; replicate 2): 24.1 ×10⁻⁶ cm/s; Papp A→B at 90 min, 10 μM (in vitro; replicate 3): 15.3 ×10⁻⁶ cm/s; Papp B→A at 90 min, 10 μM (in vitro; Mean): 15.3 ×10⁻⁶ cm/s; Papp B→A at 90 min, 10 μM (in vitro; replicate 2): 15.3 ×10⁻⁶ cm/s; Papp B→A at 90 min, 10 μM (in vitro; replicate 3): 17 ×10⁻⁶ cm/s"
"C=C[C@H]1C[N@@]2CC[C@H]1C[C@@H]2[C@@H](O)c1ccnc2ccc(OC)cc12 [Quinidine, reference compound]",,,−4.5* Log10[10^−6 cm/s],−4.6 Log10[10^−6 cm/s],−4.5 Log10[10^−6 cm/s],−4.5 Log10[10^−6 cm/s],,,,,,,,,,"Mass retention ([1]; 4 h, 50 μM): 56%"
